Laboratory results as given in patent US9056111B1, “Selective efflux inhibitors and related pharmaceutical compositions and methods of treatment” (STC.UNM, priority 2011, dated 2015).
Where “and” joins values, the source holds several entries; their conditions need not be identical. Equal values may be shown once. Entries after “also recorded” stand apart in the source; their conditions may differ.

Assays:
ABCB1 = ABCB1 (Homo sapiens, UniProt P08183); assay: JC-1 efflux inhibition dose response, flow cytometry, Jurkat-DNR cells
Procedure, shortened: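 Jurkat-DNR cells pre-stained with 1 μM JC-1 were incubated with compound (final 50 μM to 69 nM, […]) at 1×10^6 cells/mL, rotated 30 min at 25° C. Retained JC-1 read by flow cytometry (488 nm excitation, 530/40 nm emission). Curves fitted to a four-parameter logistic.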

[1] = system: ABCB1 over-expressing Jurkat-DNR cells; assay: Chemoreversal assay: potentiation of daunorubicin (DNR) killing; format: cell-based; conditions: constant 100 nM DNR, varied inhibitor dose, read-out: CR50 ABCB1
Experimental: (§1) Cells (ABCB1, Jurkat-DNR or ABCG2 Ig-MXP3) are incubated with the test compound (3 order of magnitude concentration range) over a 3-day and 7-day period in the presence of the inhibitor and chemotherapeutic (ABCB1, DNR or ABCG2 MTX), such that a cell concentration of at least 1×10^5 cells/mL is maintained. Cell viability is determined by trypan blue staining and enumeration under light microscopy. […] A chemoreversal index (Chemoreversal 50, CR50) is determined from the viability assessment. Using a similar approach, a direct cytotoxicity index (Toxic Dose 50, TD50) is determined by assessment of cell death of cells grown in media alone.
(§2) Cells (ABCB1, Jurkat-DNR or ABCG2 Ig-MXP3) were incubated with the test compound in a 3 order of magnitude concentration range over three and seven day periods in the presence of the inhibitor and chemotherapeutic (ABCB1, 100 nM DNR or ABCG2 30 nM MTX), such that a cell concentration of at least 1×10^5 cells mL^−1 was maintained. Cell viability was determined by trypan blue staining and enumeration under light microscopy. […] A chemoreversal index (Chemoreversal 50, CR50) was determined from the viability assessment. Using a similar approach, a direct cytotoxicity index (Toxic Dose 50, TD50) was determined by assessment of cell death of cells grown in media alone.

[2] = system: ABCG2 over-expressing Ig-MXP3 cells; assay: Chemoreversal assay: potentiation of mitoxantrone (MTX) killing; format: cell-based
Experimental: as §1, §2

Jurkat-DNR cells = assay: Direct cytotoxicity (Toxic Dose 50) without chemotherapeutic; conditions: Jurkat-DNR cells, inhibitor without chemotherapeutic
Procedure, shortened: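 Jurkat-DNR cells grown in media alone with compound over a 3-order-of-magnitude range for 3 and 7 days, keeping at least 1×10^5 cells/mL. Viability by trypan blue exclusion counted under light microscopy; TD50 derived from cell death.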

[3] = system: ABCG2 over-expressing Igrov1/T8 tumors; assay: ABCG2 resistant Igrov1/T8 tumor xenograft, combination with topotecan; format: in vivo, CB-17 SCID mice; conditions: for tumor size, combination of TPT and inhibitor: 150 nM TPT + 100 nM SID 88095709 (1) or 500 nM SID 85752814 (7), up to 96 hr
Experimental: Specific-pathogen-free adult CB-17 female SCID mice (5-6 weeks of age) weighing 20-25 g, are purchased. Briefly, ABCG2 over-expressing Igrov1/T8 cells are injected (5×10^6 cells/mouse). Prior to injection, Igrov1/T8 cells are maintained in topotecan in order to assure continuous expression of ABCG2. Tumors are allowed to grow for 3-4 weeks or until tumor volumes are greater than ˜100 cubic millimeters, at which time they are stratified into treatment groups. Treatment is administered and we observe the size of the tumor and weight of the mouse over a 7 day period. At the end of 7 days, we: 1) sacrifice the animal; 2) measure and weigh the tumor (if present); 3) analyze the histology of the tumor as well as other organs for evidence of toxicity; and 4) measure the expression of ABCG2 receptors on the tumor to determine if in vivo growth has altered ABCG2 expression. In our initial studies, we have generally observed high survival at 4 weeks (>90%) which escalates rapidly with near 100% mortality by 6 weeks. This approach is well described elsewhere.^9
Tumor-bearing mice were injected with either 150 nM TPT, 100 nM SID 88095709 (probe resupply), or 500 nM SID 85752814 (original SMR hit).
Igrov1/T8 cells were injected into the hind limbs of CB-17 SCID mice at a concentration of 1×10^7 cells in 200 μL, n of 3 per condition. The tumor was grown until the volume was in the range of 75 mm^3 to 250 mm^3. […] Injections were repeated daily and the size of the tumor was determined as a fraction of the starting size. After four days the mice were sacrificed and any recurring tumor was verified by light microscopy examination of histological sections. Mice were studied and maintained in accordance with guidelines of our Institutional Animal Research Committee at UNM HSC.

ABCB1, sequence (P08183 whole entry): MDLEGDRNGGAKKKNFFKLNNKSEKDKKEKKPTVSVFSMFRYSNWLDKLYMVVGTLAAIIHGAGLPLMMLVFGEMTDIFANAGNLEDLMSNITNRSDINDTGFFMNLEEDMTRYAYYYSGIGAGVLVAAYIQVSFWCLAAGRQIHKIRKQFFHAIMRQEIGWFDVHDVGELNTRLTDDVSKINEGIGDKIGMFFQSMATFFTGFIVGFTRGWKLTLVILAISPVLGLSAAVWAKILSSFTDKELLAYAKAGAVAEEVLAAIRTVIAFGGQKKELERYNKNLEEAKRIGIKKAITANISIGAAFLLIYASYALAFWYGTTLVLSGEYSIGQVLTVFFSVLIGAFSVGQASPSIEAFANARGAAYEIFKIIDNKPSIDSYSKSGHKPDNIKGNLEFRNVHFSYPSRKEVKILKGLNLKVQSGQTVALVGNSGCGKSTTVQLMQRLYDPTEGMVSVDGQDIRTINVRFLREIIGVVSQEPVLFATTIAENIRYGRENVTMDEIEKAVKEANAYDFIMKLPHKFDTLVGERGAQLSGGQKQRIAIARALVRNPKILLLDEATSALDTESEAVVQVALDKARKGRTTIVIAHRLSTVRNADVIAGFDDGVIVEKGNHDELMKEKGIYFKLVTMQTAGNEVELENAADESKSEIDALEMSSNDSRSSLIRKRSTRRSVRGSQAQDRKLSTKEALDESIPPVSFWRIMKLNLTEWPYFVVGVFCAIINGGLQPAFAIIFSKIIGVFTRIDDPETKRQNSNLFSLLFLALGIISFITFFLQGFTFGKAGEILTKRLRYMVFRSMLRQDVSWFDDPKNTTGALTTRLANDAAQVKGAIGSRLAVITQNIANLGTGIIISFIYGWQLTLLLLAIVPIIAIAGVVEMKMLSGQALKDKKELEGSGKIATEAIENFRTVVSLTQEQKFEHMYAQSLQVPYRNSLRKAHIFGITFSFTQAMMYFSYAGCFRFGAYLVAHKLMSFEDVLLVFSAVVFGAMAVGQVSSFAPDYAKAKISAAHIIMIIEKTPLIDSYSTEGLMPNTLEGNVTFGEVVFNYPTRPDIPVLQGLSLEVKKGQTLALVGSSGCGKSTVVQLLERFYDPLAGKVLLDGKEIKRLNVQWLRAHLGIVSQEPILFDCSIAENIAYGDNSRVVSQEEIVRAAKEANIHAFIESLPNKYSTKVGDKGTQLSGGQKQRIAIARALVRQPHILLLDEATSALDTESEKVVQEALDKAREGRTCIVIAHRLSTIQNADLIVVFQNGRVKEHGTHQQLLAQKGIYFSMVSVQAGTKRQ

O=C(c1ccoc1)N1CCN(c2cc(-c3ccco3)nc3cc(-c4ccccc4)nn23)CC1 [Compound 1, (4-(5-(furan-2-yl)-2-phenylpyrazolo[1,5-a]pyrimidin-7-yl)piperazin-1-yl)(furan-3-yl)methanone]
EC50 (ABCB1): 4.65 µM
IC50 (ABCB1; IC50 ABCB1 (efflux inhibition of JC-1 substrate), Jurkat-DNR cells over-expressing ABCB1, averages of two to four replicates): 4.7 µM and 4.65 µM
EC50 [1]: 550 nM
selectivity in chemoreversal (cell killing assay) ([2]; ABCG2 vs ABCB1): 1.8 fold
EC50 ([2]; Ig-MXP3 cells, constant 30 nM MTX, varied inhibitor dose, read-out: CR50 ABCG2): 310 nM
TD50 ABCB1 (Jurkat-DNR cells): 5.52 µM
TD50 ABCB1 (Jurkat-DNR cells; listed as SID 88095709): 5.5 µM
tumor size, combination of TPT and inhibitor [3]: dramatically reduced tumor size; also recorded: Significant tumor reduction
tumor size, combination of TPT and inhibitor ([3]; listed as SID 88095709): dramatically reduced tumor size
tumor size, single agent ([3]; 150 nM TPT, 100 nM SID 88095709 or 500 nM SID 85752814 alone): remained the same or increased
tumor size, inhibitor alone ([3]; inhibitor alone (100 nM or 500 nM as printed), Example 3): No reduction in size
